Values quoted from earlier work in PMC7587962, “Evaluation of Cytotoxicity and α-Glucosidase Inhibitory Activity of Amide and Polyamino-Derivatives of Lupane Triterpenoids” (Molecules, 2020).

Assays:
BT-549 = test system: BT-549; set-up: method as in PMID 25405285; conditions: standard drugs used by NCI as control; cited from earlier work
SK-MEL-28 = test system: SK-MEL-28; set-up: method as in PMID 25405285; conditions: standard drugs used by NCI as control; cited from earlier work
UACC-257 = test system: UACC-257; set-up: method as in PMID 25405285; conditions: standard drugs used by NCI as control; cited from earlier work
786-0 = test system: 786-0; set-up: method as in PMID 25405285; conditions: standard drugs used by NCI as control; cited from earlier work
ACHN = test system: ACHN; set-up: method as in PMID 25405285; conditions: standard drugs used by NCI as control; cited from earlier work
SNB-19 = test system: SNB-19; set-up: method as in PMID 25405285; conditions: standard drugs used by NCI as control; cited from earlier work
COLO 205 = test system: COLO 205; set-up: method as in PMID 25405285; conditions: standard drugs used by NCI as control; cited from earlier work
PC-3 = test system: PC-3; set-up: method as in PMID 25405285; conditions: standard drugs used by NCI as control; cited from earlier work
KM12 = test system: KM12; set-up: method as in PMID 25405285; conditions: standard drugs used by NCI as control; cited from earlier work
SF-268 = test system: SF-268; set-up: method as in PMID 25405285; conditions: standard drugs used by NCI as control; cited from earlier work
RPMI-8226 = test system: RPMI-8226; set-up: method as in PMID 25405285; conditions: standard drugs used by NCI as control; cited from earlier work
OVCAR-8 = test system: OVCAR-8; set-up: method as in PMID 25405285; conditions: standard drugs used by NCI as control; cited from earlier work
T-47D = test system: T-47D; set-up: method as in PMID 25405285; conditions: standard drugs used by NCI as control; cited from earlier work
SN12C = test system: SN12C; set-up: method as in PMID 25405285; conditions: standard drugs used by NCI as control; cited from earlier work
NCI-H460 = test system: NCI-H460; set-up: method as in PMID 25405285; conditions: standard drugs used by NCI as control; cited from earlier work
HS 578T = test system: HS 578T; set-up: method as in PMID 25405285; conditions: standard drugs used by NCI as control; cited from earlier work
OVCAR-4 = test system: OVCAR-4; set-up: method as in PMID 25405285; conditions: standard drugs used by NCI as control; cited from earlier work
SK-MEL-2 = test system: SK-MEL-2; set-up: method as in PMID 25405285; conditions: standard drugs used by NCI as control; cited from earlier work
K-562 = test system: K-562; set-up: method as in PMID 25405285; conditions: standard drugs used by NCI as control; cited from earlier work
MDA-MB-435 = test system: MDA-MB-435; set-up: method as in PMID 25405285; conditions: standard drugs used by NCI as control; cited from earlier work
SK-MEL-5 = test system: SK-MEL-5; set-up: method as in PMID 25405285; conditions: standard drugs used by NCI as control; cited from earlier work
UO-31 = test system: UO-31; set-up: method as in PMID 25405285; conditions: standard drugs used by NCI as control; cited from earlier work
SNB-75 = test system: SNB-75; set-up: method as in PMID 25405285; conditions: standard drugs used by NCI as control; cited from earlier work
MDA-MB-231/ATCC = test system: MDA-MB-231/ATCC; set-up: method as in PMID 25405285; conditions: MDA-MB-31/ATCC; standard drugs used by NCI as control; cited from earlier work
U251 = test system: U251; set-up: method as in PMID 25405285; conditions: standard drugs used by NCI as control; cited from earlier work
A549/ATCC = test system: A549/ATCC; set-up: method as in PMID 25405285; conditions: standard drugs used by NCI as control; cited from earlier work
HL-60(TB) = conditions: standard drugs used by NCI as control; cited from earlier work
M14 = test system: M14; set-up: method as in PMID 25405285; conditions: standard drugs used by NCI as control; cited from earlier work
TK-10 = test system: TK-10; set-up: method as in PMID 25405285; conditions: standard drugs used by NCI as control; cited from earlier work
CAKI-1 = test system: CAKI-1; set-up: method as in PMID 25405285; conditions: standard drugs used by NCI as control; cited from earlier work
NCI/ADR-RES = test system: NCI/ADR-RES; set-up: method as in PMID 25405285; conditions: standard drugs used by NCI as control; cited from earlier work
SK-OV-3 = test system: SK-OV-3; set-up: method as in PMID 25405285; conditions: standard drugs used by NCI as control; cited from earlier work
CCRF-CEM = test system: CCRF-CEM; set-up: method as in PMID 25405285; conditions: standard drugs used by NCI as control; cited from earlier work
HOP-62 = test system: HOP-62; set-up: method as in PMID 25405285; conditions: standard drugs used by NCI as control; cited from earlier work
HCT-116 = test system: HCT-116; set-up: method as in PMID 25405285; conditions: standard drugs used by NCI as control; cited from earlier work
MOLT-4 = test system: MOLT-4; set-up: method as in PMID 25405285; conditions: standard drugs used by NCI as control; cited from earlier work
HCC-2998 = test system: HCC-2998; set-up: method as in PMID 25405285; conditions: standard drugs used by NCI as control; cited from earlier work
OVCAR-5 = test system: OVCAR-5; set-up: method as in PMID 25405285; conditions: standard drugs used by NCI as control; cited from earlier work
NCI-H226 = test system: NCI-H226; set-up: method as in PMID 25405285; conditions: standard drugs used by NCI as control; cited from earlier work
NCI-H23 = test system: NCI-H23; set-up: method as in PMID 25405285; conditions: standard drugs used by NCI as control; cited from earlier work
MCF7 = test system: MCF7; set-up: method as in PMID 25405285; conditions: standard drugs used by NCI as control; cited from earlier work
A498 = test system: A498; set-up: method as in PMID 25405285; conditions: standard drugs used by NCI as control; cited from earlier work
UACC-62 = test system: UACC-62; set-up: method as in PMID 25405285; conditions: standard drugs used by NCI as control; cited from earlier work
HCT-15 = test system: HCT-15; set-up: method as in PMID 25405285; conditions: standard drugs used by NCI as control; cited from earlier work
DU-145 = test system: DU-145; set-up: method as in PMID 25405285; conditions: standard drugs used by NCI as control; cited from earlier work
RXF 393 = test system: RXF 393; set-up: method as in PMID 25405285; conditions: standard drugs used by NCI as control; cited from earlier work
SW-620 = test system: SW-620; set-up: method as in PMID 25405285; conditions: standard drugs used by NCI as control; cited from earlier work
LOX IMVI = test system: LOX IMVI; set-up: method as in PMID 25405285; conditions: standard drugs used by NCI as control; cited from earlier work
HT29 = test system: HT29; set-up: method as in PMID 25405285; conditions: standard drugs used by NCI as control; cited from earlier work
NCI-H522 = test system: NCI-H522; set-up: method as in PMID 25405285; conditions: standard drugs used by NCI as control; cited from earlier work
MALME-3M = test system: MALME-3M; set-up: method as in PMID 25405285; conditions: standard drugs used by NCI as control; cited from earlier work
OVCAR-3 = test system: OVCAR-3; set-up: method as in PMID 25405285; conditions: standard drugs used by NCI as control; cited from earlier work
HOP-92 = test system: HOP-92; set-up: method as in PMID 25405285; conditions: standard drugs used by NCI as control; cited from earlier work
SF-539 = test system: SF-539; set-up: method as in PMID 25405285; conditions: standard drugs used by NCI as control; cited from earlier work
IGROV1 = test system: IGROV1; set-up: method as in PMID 25405285; conditions: standard drugs used by NCI as control; cited from earlier work

Structure (SMILES): O=c1[nH]cc(F)c(=O)[nH]1 [Compound 5-FU, 5-fluorouracil]
- GI50 (BT-549): 10.6 µM
- GI50 (SK-MEL-28): 1030 nM
- GI50 (UACC-257): 3.55 µM
- GI50 (786-0): 720 nM
- GI50 (ACHN): 270 nM
- GI50 (SNB-19): 3.81 µM
- GI50 (COLO 205): 150 nM
- GI50 (PC-3): 2360 nM
- GI50 (KM12): 210 nM
- GI50 (SF-268): 1620 nM
- GI50 (RPMI-8226): 40 nM
- GI50 (OVCAR-8): 1740 nM
- GI50 (T-47D): 8.12 µM
- GI50 (SN12C): 490 nM
- GI50 (NCI-H460): 50 nM
- GI50 (HS 578T): 9.77 µM
- GI50 (OVCAR-4): 4.43 µM
- GI50 (SK-MEL-2): 56.7 µM
- GI50 (K-562): 3.58 µM
- GI50 (MDA-MB-435): 70 nM
- GI50 (SK-MEL-5): 460 nM
- GI50 (UO-31): 1420 nM
- GI50 (SNB-75): 78.7 µM
- GI50 (MDA-MB-231/ATCC): 6.6 µM
- GI50 (U251): 920 nM
- GI50 (A549/ATCC): 180 nM
- GI50 (HL-60(TB)): 2300 nM
- GI50 (M14): 980 nM
- GI50 (TK-10): 1120 nM
- GI50 (CAKI-1): 70 nM
- GI50 (NCI/ADR-RES): 310 nM
- GI50 (SK-OV-3): 21.8 µM
- GI50 (CCRF-CEM): 9.97 µM
- GI50 (HOP-62): 390 nM
- GI50 (HCT-116): 220 nM
- GI50 (MOLT-4): 350 nM
- GI50 (HCC-2998): 50 nM
- GI50 (OVCAR-5): 10.9 µM
- GI50 (NCI-H226): 54.7 µM
- GI50 (NCI-H23): 330 nM
- GI50 (MCF7): 70 nM
- GI50 (A498): 350 nM
- GI50 (UACC-62): 520 nM
- GI50 (HCT-15): 110 nM
- GI50 (DU-145): 360 nM
- GI50 (RXF 393): 2610 nM
- GI50 (SW-620): 920 nM
- GI50 (LOX IMVI): 240 nM
- GI50 (HT29): 170 nM
- GI50 (NCI-H522): 7.27 µM
- GI50 (MALME-3M): 50 nM
- GI50 (OVCAR-3): 10 nM
- GI50 (HOP-92): 77.9 µM
- GI50 (SF-539): 60 nM
- GI50 (IGROV1): 1220 nM
